# Data from US20200129499A1, “COMBINATION OF TASQUINIMOD OR A PHARMACEUTICALLY ACCEPTABLE SALT THEREOF AND A PD-1 AND/OR PD-L1 INHIBITOR, FOR USE AS A MEDICAMENT” (ACTIVE BIOTECH AB, priority 2015, published 2020).
# Key:
# MBT-2 tumors [1] = test: Subcutaneous MBT-2 tumor growth in mice, initial combination study (Example 1); type: in vivo, mouse
# Procedure: Six to seven-week old C3H/HeN male mice were purchased from JANVIER Labs. MBT-2, a mouse bladder cancer cell line (M. S. Soloway., Intravesical and systemic chemotherapy in the management of superficial bladder cancer, Urol. Clin. North Am. 11 (4):623-635, 1984), was provided from JCRB Cell Bank and was cultured in Eagle's minimal essential medium (Life Technologies) supplemented with 10% fetal bovine serum.
# 1×10^6 cells were injected subcutaneously into the flanks of mice and were allowed to grow until tumors reached a volume between 40 and 130 mm^3 (around day 10-1 1 post tumor cell inoculation).
# Tumor volumes in mm^3 were assessed by caliper measurements and were calculated by the formula=(Width)^2×Length 12.
# As mentioned in Table 2, the mice were treated with tasquinimod (30 mg/kg) p.o. (per os, i.e. oral administration) twice a day. For the blockade of PD-L1, 200 μg of the […] (clone 10F.9G2; Bio-XCell) was administered i.p. (intraperitoneally) to mice every 3 days. All studies were approved by the Bioethics committee of IPSEN (CE2A) and by the French Ministry of Agriculture and Fisheries' veterinary services.
# MBT-2 tumors [2] = test: Differential mRNA expression (qRT-PCR) in established MBT-2 tumors (Table S1); type: in vivo, mouse
# Procedure: The relative mRNA expression of different genes was examined in MBT-2 tumors of treated animals with tasquinimod as compared to control group. Treatment started at day 11 post-tumor cell inoculation and qRT-PCR analysis was performed at day 15. Results are represented as mean fold-change compared with control. P values were evaluated using student test.
# RNA extraction of murine CD1 1b+ was performed using the PicoPure® RNA Isolation Kit (Life Technologies). RNA in tumors was isolated from 100 μ ? -thick cryosections of OCT-embedded tumors using Trizol Reagent (Life Technologies). cDNAs were prepared using the High-Capacity cDNA Reverse Transcription Kit (Life Technologies) following the manufacturer's instructions. cDNA from CD1 1b+ isolated cells was pre-amplified (14 cycles) using the TaqMan PreAmp Master Mix (Life Technologies). Real time PCR (q-PCR) was performed with a two-step PCR protocol (95° C. for 10 min, followed by 40 cycles at 95° C. for 15 s and 60° C. for 1 min) using Taqman gene expression (Life Technologies). The probes that were used are documented in Table S2. Hmbs was used as “housekeeping” gene whose expression was correlated to other housekeeping quantified genes (e.g. Cyclophilin A). Expression levels were calculated as normalized ACt expression values between target gene and “housekeeping” genes.
# CD8+ T cells = test: Ex vivo T cell proliferation assay with tumor-derived CD11b+ cells; type: cell-based, mouse; details: CD11b+ from treated established tumors co-cultured 1:1 with T cells, 72 h; FIGS. 8A and B
# Excerpt: FIG. 7: Combination of tasquinimod with Anti-PD-L1 increases cytotoxic T cell activity. (A) Quantitative data of the percentage of tumor-infiltrating CD8+ cells on day 15 after treatment (n=6). (B) Left panel: Representative images showing immunostaining for granzyme B (brown staining) in tumors from control or treated groups. Original magnification: X200, inset: tumor overview. Scale bar: 5θ μm. Right panel: Quantification of granzyme B positive cells on tumor sections expressed as a percentage of total cells using an antibody against granzyme B (Kruskal-Wallis test; *, P=0.0326). (C) The concentration levels (pg/ml) of the following cytokines: IL-1β, IL-7, IL-1 2(p70) and IL-15 in tumor lysate from each group were quantified using Luminex Technology (n=5). (D) Splenocytes (n=5) from each group were stimulated with PMA/ionomycin in the presence of Brefeldin A. IL-2, TNF-a and IFN-γ production was examined by intracellular staining. […] Asterisks denote statistical significance using one-way ANOVA (*, P<0.05; **, P<0.005). […] P values were calculated based on Kruskal-Wallis test between the different groups (*, P<0.05; **, P<0.005). […] (A) Representative histograms obtained by FACS analysis showing the fluorescence intensity of CFSE-T cells gated on CD8+. […] (C) IFN-γ secretion in the supernatant of the co-culture is measured 72 hours following incubation at 37° C. using Luminex Technology. […]
# [3] = tested on: human prostate, breast, bladder and colon tumor xenografts; details: pre-clinical models, Isaacs et al. 2013; cited from earlier work
# [4] = tasquinimod 30 mg/kg from day 11, qRT-PCR at day 15
structure (smiles),measurement,setting,value
"COc1cccc2c1c(O)c(C(=O)N(C)c1ccc(C(F)(F)F)cc1)c(=O)n2C [tasquinimod, 4-hydroxy-5-methoxy-N,1-dimethyl-2-oxo-N-[4-(trifluoromethyl)phenyl]-1,2-dihydroquinoline-3-carboxamide]",Average of tumor volumes,MBT-2 tumors [1]; day 0 post tumor cell inoculation (before treatment),0 mm^3
same,Average of tumor volumes,MBT-2 tumors [1]; day 10 post tumor cell inoculation,49 mm^3
same,Average of tumor volumes,MBT-2 tumors [1]; day 11 post tumor cell inoculation,61 mm^3
same,Average of tumor volumes,MBT-2 tumors [1]; day 13 post tumor cell inoculation,180 mm^3
same,Average of tumor volumes,MBT-2 tumors [1]; day 14 post tumor cell inoculation,225 mm^3
same,Average of tumor volumes,MBT-2 tumors [1]; day 15 post tumor cell inoculation,309 mm^3
same,Average of tumor volumes,MBT-2 tumors [1]; day 17 post tumor cell inoculation,390 mm^3
same,impact on tumor growth of MBT-2 tumors,"MBT-2 tumors [1]; tasquinimod 30 mg/kg p.o. twice a day, antibody 200 μg i.p. every 3 days, from day 10-11",slight non-significant impact
same,mRNA expression of PD-L1 in MBT-2 tumors,"MBT-2 tumors [2]; established tumors, tasquinimod 30 mg/kg",increased
same,"Fold change tasquinimod/control, CCL5 mRNA",MBT-2 tumors [2]; [4],0.88
same,"Fold change tasquinimod/control, CCL7 mRNA",MBT-2 tumors [2]; [4],0.90
same,"Fold change tasquinimod/control, Ccl2 mRNA",MBT-2 tumors [2]; [4],0.86
same,"Fold change tasquinimod/control, Cd274/PD-L1 mRNA",MBT-2 tumors [2]; [4],1.46
same,"Fold change tasquinimod/control, Cxcl5 mRNA",MBT-2 tumors [2]; [4],2.31
same,"Fold change tasquinimod/control, Cxcl9 mRNA",MBT-2 tumors [2]; [4],0.80
same,"Fold change tasquinimod/control, Cxcl11 mRNA",MBT-2 tumors [2]; [4],1.63
same,"Fold change tasquinimod/control, II-12b mRNA",MBT-2 tumors [2]; [4],1.71
same,"Fold change tasquinimod/control, Ifng mRNA",MBT-2 tumors [2]; [4],1.53
same,"Fold change tasquinimod/control, Mrc1/CD206 mRNA",MBT-2 tumors [2]; [4],0.90
same,"Fold change tasquinimod/control, Nos2 mRNA",MBT-2 tumors [2]; [4],1.76
same,"Fold change tasquinimod/control, Serpinb2 mRNA",MBT-2 tumors [2]; [4],3.65
same,"Fold change tasquinimod/control, Tnf mRNA",MBT-2 tumors [2]; [4],1.19
same,proliferation of stimulated CD8+ T cells ex vivo,CD8+ T cells,limited ability
same,efficacy as monotherapeutic agent against tumor xenografts,[3],effective as a monotherapeutic agent
